Measured values taken from US20260069560A1, “COMPOSITIONS AND METHODS OF USE” (UNIVERSITY OF FLORIDA RESEARCH FOUNDATION, INCORPORATED, priority 2022, published 2026).

What was measured:
[1] = system: LLC subcutaneous allograft tumors; experiment: Intratumoral injection of cis-Bac430 in combination with anti-PD-1 therapy in lung tumor-bearing mice; format: in vivo
Experimental: FIGS. 12A-12G illustrate that intratumoral administration of cis-Bac430 in combination with anti-PD-1 therapy reduces tumor volume and enhances systemic anti-tumor immunity. An experimental schematic is shown for testing anti-PD-1 mediated anti-tumor effect in combination with intratumoral injection of cis-Bac430 or DMSO control (FIG. 12A). Representative results are shown for the growth curve of LLC subcutaneous allograft tumors receiving intratumoral injection of either cis-Bac430 (0.043 mg/mouse) or DMSO alone at the same time as anti-PD-1 treatment or saline control (FIG. 12n). Each point represents tumor volume mean±SEM. At day 20, P values are calculated by Mann-Whitney U test. Representative results are shown for the mean±SEM of tumor weight at the endpoint for mice treated with an anti-PD-1 monoclonal antibody or saline control that received intratumoral injection of either cis-Bac430 or DMSO (FIG. 12C). P values are calculated by Mann-Whitney U test. Representative results are shown for the mean±SEM of intratumoral CD8+ frequency at endpoint for mice treated with an anti-PD-1 monoclonal antibody or saline control that received intratumoral injection of either cis-Bac430 or DMSO (FIG. 12D). P values are calculated by Mann-Whitney U test. Representative results are shown for the mean±SEM of intratumoral IFNγ+CD8+ frequency at endpoint for mice treated with an anti-PD-1 monoclonal antibody or saline control that received intratumoral injection of either cis-Bac430 or DMSO (FIG. 12E). P values are calculated by Mann-Whitney U test. Representative results are shown for the mean±SEM of splenic CD8+ frequency at endpoint for mice treated with an anti-PD-1 monoclonal antibody or saline control that received intratumoral injection of either cis-Bac430 or DMSO (FIG. 12F). P values are calculated by Mann-Whitney U test. Representative results are shown for the mean±SEM of splenic IFNγ+CD8+ frequency at endpoint for mice treated with an anti-PD-1 monoclonal antibody or saline control that received intratumoral injection of either cis-Bac430 or DMSO (FIG. 12G). P values are calculated by Mann-Whitney U test.
Lung tumor-bearing mice were injected intratumorally with a 10 μL volume of either 10 mM (0.043 mg/dose) cis-Bac430 or DMSO on each day of anti-PD-1 therapy (FIG. 12A).

[2] = system: primary mouse splenic CD8+ T cells; experiment: Bioassay for IFNγ stimulation in primary splenic CD8+ T cells, flow cytometric analysis; format: cell-based; conditions: for IFNγ stimulation from primary splenic CD8+ T cells: synthetic compounds, concentration range 0.01-1 mM
Experimental: Isolates are cultured in 96-well deep well plates for 3 days under anaerobic conditions in MEGA media. Cell-free supernatant is obtained by filtering cultures by […] syringe filtration. Cell-free supernatant is added to the serum-free culture media of primary mouse splenic CD8+ T cells at a ratio of 1:100, followed by 6 hours of incubation. After incubation, cells are harvested and stained for flow cytometric analysis, which is performed on the BD Fortessa LSR, followed by analysis using FlowJo.
FIGS. 11A-11F illustrate that synthetic cis-Bac430 induces dose-dependent stimulation of IFNγ production. Representative results are shown for IFNγ stimulation from primary splenic CD8+ T cells by cis-Bac430 and trans-Bac430 at a concentration range between 0.01-0.25 mM (FIG. 11A) or between 0.01-1 mM (FIG. 11B). P values calculated using Mann-Whitney U test compared to unstimulated negative control and PMA/Ionomycin-stimulated positive control. Representative results are shown for the percent of live CD8+ T cells from the bioassay for IFNγ stimulation by cis-Bac430 and trans-Bac430 at a concentration range between 0.01-0.25 mM (FIG. 11C) or between 0.01-1 mM (FIG. 11D). P values calculated using Mann-Whitney U test compared to unstimulated negative control and PMA/Ionomycin-stimulated positive control. Representative results are shown for mean±SEM of fecal Bac430 concentration in μM normalized to stool weight from SPF, germ free (GF) or six-consort colonized germ free mice 2 weeks post-colonization (FIG. 11E) or for each member of the six-consort following 3 days anaerobic culture (FIG. 11F).
Feces collected from R mice were used as source material for high-throughput microbial isolation performed with the GALT Prospector technology. Bacterial identification was performed using MALDI-TOF Biotyper and Sanger sequencing. The cell free supernatants and <3 kDa small molecules of 183 Bacteroides isolates were screened for their ability to stimulate IFNγ production via a bioassay using primary CD8+ T cells and flow cytometric analysis. A consortium composed of six IFNγ-stimulating isolates or NR feces was transplanted into a gnotobiotic mouse model of lung cancer and treated with anti-PD-1, with or without anti-IFNγ monoclonal antibody depletion. Tumors were harvested at endpoint for flow cytometric analysis, and blood serum for IFNγ ELISA. […] Vacuum and high-performance liquid chromatography were used to identify fractions from the cell free supernatant of a single stimulating Bacteroides isolate which stimulate IFNγ production.
To summarize, small molecule characterization was performed using LC-MS/MS and computation pipelines for structural prediction. […]

[3] = combined with anti-PD-1, endpoint
[4] = intratumoral 0.043 mg/dose on each day of anti-PD-1 therapy, compared to anti-PD-1 or DMSO injection
[5] = intratumoral administration, endpoint

SMILES | frequency of intratumoral CD8+ T cells [1, 3] | tumor infiltrating cytotoxic IFNγ+CD8+ T cells [1, 3] | tumor volume at endpoint [1, 4] | tumor weight at endpoint [1, 4] | splenic IFNγ+CD8+ T cells [1, 5] | splenic overall CD8+ T cell frequency [1, 5] | proliferative effect on CD8+ T cells (percent of live CD8+ T cells) ([2]; higher concentrations) | IFNγ stimulation from primary splenic CD8+ T cells [2] | IFNγ stimulation from primary splenic CD8+ T cells ([2]; listed as Cis-Bac430)
CCCCCC/C=C\CCCCCCCCCC(=O)N[C@@H](Cc1ccccc1)C(=O)O [cis-Bac430] | increased frequency | trend toward increased | significantly smaller | significantly smaller | trend toward increased | decreased | mild proliferative effect | dose dependent bioactivity | robustly stimulate IFNγ
CCCCCC/C=C/CCCCCCCCCC(=O)N[C@@H](Cc1ccccc1)C(=O)O [trans-Bac430] | – | – | – | – | – | – | – | does not demonstrate bioactivity | –
